Laboratory results published in article PMC10529643, “Discovery of ACE Inhibitory Peptides Derived from Green Coffee Using In Silico and In Vitro Methods” (Foods, 2023).
Where two headings read alike, the source gives them in different places. One block for each compound: values may come before it. Ends that are not written are not given here.

Assays:
[1] = test system: Angiotensin converting enzyme (ACE); assay: In vitro ACE inhibitory activity assay with FAPGG substrate; type: biochemical; conditions: captopril at 0.1 μM, 37 °C, 30 min, absorbance 340 nm
Description: The peptides predicted with potential antihypertensive capacity were synthesized by GenScript. The ACE inhibitory capacity of hydrolysates and selected peptides were measured as previously described with minor modifications; 400 μL of samples (hydrolysates, synthesized peptides dissolved in the HEPES-NaCl buffer at a concentration of 1.25 mg/mL, 125 μM separately) were mixed with 100 μL of ACE (0.2 U/mL). After incubation of the mixture at 37 °C for 10 min, 500 μL of FAPGG was added and the absorbance value at 340 nm was detected instantly by a FlexStation 3 and recorded as A0 min. After being kept at 37 °C for 30 min, the absorbance value at 340 nm was detected again and recorded: ACE inhibitory rate%=∆Acontrol−∆Asample/∆Acontrol×100% where A0 min is the initial absorbance at 340 nm; A30 min is the absorbance at 340 nm after keeping at 37 °C for 30 min, and ΔA is the reduction in the absorbance: A0 min–A30 min.

[2] = test system: pepsin; assay: In vitro gastrointestinal digestion simulation, pepsin step, MS analysis; type: in vitro ADME; conditions: 1.0 mg/mL peptide, pepsin 1% E/S w/w, pH 2.0, 37 °C, 2 h; Q-TOF MS read-out
Description: (§1) In vitro gastrointestinal digestion simulation was performed according to the method described by Fan et al. with minor modifications. Two peptides (CP2, CP3) were dissolved in ultrapure water at 1.0 mg/mL, respectively. The solutions were adjusted to pH 2.0 with […]. Then, pepsin (1% E/S, w/w) was added to peptide solutions and the mixtures were incubated at 37 °C for 2 h. Half of the two digests were terminated in digestion by increasing the temperature to 90 °C. After the other half were adjusted to pH 7.5 with […], pancreatin (1% E/S, w/w) was added and the systems were digested at 37 °C for 2 h. The reactions were then stopped by boiling for 10 min. Subsequently, solvents were centrifuged at 10,000 rpm for 10 min. The supernatants were lyophilized to collect and analyzed using Agilent 6545 series Q-TOF mass spectrometer (Agilent, Waldbronn, Germany). The ACE inhibitory activity of the digested peptide solutions was determined under the same conditions.

[3] = test system: pepsin-pancreatin; assay: In vitro gastrointestinal digestion simulation, pepsin then pancreatin, MS analysis; type: in vitro ADME; conditions: pepsin pH 2.0, 37 °C, 2 h then pancreatin 1% E/S w/w, pH 7.5, 37 °C, Q-TOF MS read-out
Description: as §1

[4] = test system: ACE; conditions: cited from earlier work

- ACE inhibition (%) [1]: 97.5%
Compound: C[C@H](CS)C(=O)N1CCC[C@H]1C(=O)O [Captopril, captopril]

- stability against pepsin digestion [2]: well resistant in gastric digestion
- stability against successive pepsin and pancreatin digestion [3]: new peptide sequences were detected
Compound: IIPNEVY [CP2]

- stability against pepsin digestion [2]: Only a small amount of CP3 was degraded
- stability against successive pepsin and pancreatin digestion [3]: Great changes in the MS analysis
Compound: ITPPVMLPP [CP3]

Compound: QAGLSPVR
- ACE inhibition pattern ([4]; from tilapia skin gelatin): noncompetitive

Compound: QLDL
- ACE inhibition pattern ([4]; from the mycelia of Ganoderma Lucidum): noncompetitive

Compound: VFDGVLRPGQ
- ACE inhibition pattern ([4]; from rice bran protein): noncompetitive

Compound: VGLPPNSR
- ACE inhibition pattern ([4]; from tilapia skin gelatin): noncompetitive
